According to patent US20230276703A1, “ORGANIC SEMICONDUCTOR MATERIAL” (The University of Tokyo, priority 2020, published 2023):

experiment: Solvent solubility evaluation in o-dichlorobenzene; assay type: physicochemical; settings: heated at 100° C., visual confirmation of dissolution, (w/Vd)×100
Experimental: Approximately 1 mg of each compound (accurate weight was w (mg)) was weighed in a sample tube, and 20 μL of o-dichlorobenzene was added thereto by using a micropipette. The sample tube was capped and heated at 100° C. by a hot plate. Whether or not the compound was dissolved was visually confirmed. When the compound was not dissolved, the operation of adding o-dichlorobenzene in an amount of 20 μL per addition until the compound was dissolved and heating to 100° C. was repeated.
The solubility (wt. %) of the compound was calculated based on the following formula. Note that V in the formula is a volume (μL) of the o-dichlorobenzene added to dissolve the compound, and d is a density (g/cm^3) of the o-dichlorobenzene.
Solubility (%)=(w/Vd)×100

SMILES | Solubility (%)
CCCCCCCCN1C(=O)c2cnc3c4ccc5c6c(cnc(c7ccc1c2c73)c64)C(=O)N5CCCCCCCC [Compound (II)] | 0.58
CCCCCCCCN1C(=S)c2cnc3c4ccc5c6c(cnc(c7ccc1c2c73)c64)C(=S)N5CCCCCCCC [Compound (III)] | 0.49
O=C1c2ccc3c4ncc5c6c(ccc(c7ncc(c2c37)C(=O)N1CCc1ccccc1)c64)C(=O)N(CCc1ccccc1)C5=O [Compound (IX), reference compound] | <0.0007
CCCN1C(=O)c2cnc3c4c(C#N)cc5c6c(cnc(c7c(C#N)cc1c2c37)c64)C(=O)N5CCC [Compound (VI)] | 0.027
CCCCCCN1C(=O)c2cnc3c4c(C#N)cc5c6c(cnc(c7c(C#N)cc1c2c37)c64)C(=O)N5CCCCCC [Compound (VIII)] | 0.52
CCCCCCCCN1C(=O)c2ccc3c4ncc5c6c(ccc(c7ncc(c2c37)C1=O)c64)C(=O)N(CCCCCCCC)C5=O [Compound (X), reference compound] | 0.019
